“Also recorded” adds a separate entry of the source. Read-outs that look alike come from different tables or passages of the source.
What was measured:
[1] = test system: IFT88 localization; assay: IFT88 immunostaining in NIH3T3 cells; assay type: cell-based; details: EGM 5 μM, ciliobrevin D 100 μM
Text: To investigate whether the disruption of the cilium-to-nucleus trafficking of Gli2 by eggmanone was due to a general defect in the retrograde transport within the primary cilium, we compared the effect of the cytoplasmic dynein motor inhibitor ciliobrevin D with the effect of eggmanone on the intraflagellar transport protein 88 (IFT88) trafficking^19. […] Thus, the effects of eggmanone on Gli2 trafficking is specific, rather than an indirect consequence of a global defect in ciliary transport machinery.

[2] = test system: Gli1 transcription; assay: Sufu−/− mouse embryonic fibroblasts qRT-PCR; assay type: cell-based; details: Gli1 and Ptch1
Text: In light of EGM1's ability to halt Hh transcriptional activity at a node downstream of the negative regulator Sufu, and thus also downstream of Smo, we sought to confirm mode of action retention with our most promising analogs. Therefore, we employed Sufu−/− mouse embryonic fibroblasts (MEF) that display constitutively active transcription of Hh target genes Gli1 and Ptch1 and monitored the ability of our optimized analogs to repress signaling via quantitative reverse transcription-PCR (qRT-PCR). […] We then evaluated improved analogs from multiple structural classes including those from Table 1 with cyclohexylthiophene cores as well as from Table 13 with structurally distinct core modifications.
Sufu^−/− cells were seeded into 12-well plates at a density of 100,000 cells/well in D10 FBS and incubated for 24 hours. Small molecule solutions were prepared by adding the desired amount of compound from 10 mM DMSO stock to D0.5 FBS. Negative control was prepared by adding an equi-volume amount of DMSO to D0.5 FBS as compared to small molecule treated conditions. Cell plating medium was aspirated and replaced with 1 mL of prepared small molecule-containing media, and plates were incubated for 24 hours before proceeding to RNA isolation.
Cells were washed 1× with 1× phosphate-buffered saline (PBS) then RNA was isolated using the Qiagen RNeasy Mini Kit (Qiagen, Germantown, Md., USA) according to the manufacturer's protocol, eluting RNA from the spin column with 30 μL of RNase-free water. RNA was placed on ice and immediately subjected to reverse transcription. Remaining RNA was stored at −80° C.
Reverse transcription polymerase chain reaction (RT-PCR) was performed with the Applied Biosystems High Capacity cDNA Reverse Transcription Kit (ThermoFisher Scientific, Waltham, Mass., USA) using an Eppendorf MasterCycler. Each 20 μL reaction contained 0.5 μg of total RNA, 2 μL of 10×RT Buffer, 0.8 μL of 25×dNTP Mix (100 mM), 2 μL of 10×RT Random Primers, 1 μL of MultiScribe® Reverse Transcriptase (50 U/μL), 1 μL of Recombinant RNasin® Ribonuclease Inhibitor (40 U/μL) (Promega, Madison, Wis., USA), and nuclease-free water. Reverse transcription was performed with the following program: 25° C. for 10 minutes, 37° C. for 120 minutes, and 85° C. for 5 minutes. The cDNA was subjected to quantitative real-time PCR (Q-PCR) or stored at −20° C.
Quantitative real-time PCR was performed on an Applied Biosystems 7900 HT Fast Real Time PCR System in 384-well format. Each cDNA sample was assayed in triplicate with both probe of interest and control probe. Master mixes for each probe were prepared corresponding to 10 μL of Applied Biosystems TaqMan Universal PCR Master Mix (ThermoFisher Scientific, Waltham, Mass., USA), 1 μL of primer, and nuclease-free water corresponding to a volume providing 20 μL reactions when loading an average of 50 ng of cDNA. Quantitative real-time PCR was run with the following thermal cycling protocol: 50° C. for 2 min., 95° C. for 10 min., and 40 cycles of 95° C. for 15 seconds, 60° C. for 1 min., then fluorescence reading. The following FAM probes were purchased from Life Technologies (Carlsbad, Calif., USA): mouse GAPDH, Mm99999915_g1; mouse Gli1, Mm00494646_g1; mouse Ptch1, Mm01306905_m1.
Quantitative real-time PCR data for Hh signaling inhibition was quantitated using the ΔΔCt method. Control probe values were subtracted from probe of interest values to arrive at the ΔCt value. The ΔCt value was transformed by 2-^ΔCt to arrive at the ΔΔCt value. All ΔΔCt values were divided by the average negative control ΔΔCt value to provide percent Hh signaling activity. Percent inhibition values were derived by calculating the inverse of percent activity. Data is reported as mean±standard error of the mean (SEM), representing at least two biological replicates, each quantitated in triplicate.

[3] = biological target: consensus PDE4D sequence (Homo sapiens, UniProt Q08499); assay: PDE4D inhibition (consensus PDE4D sequence); assay type: biochemical
Chain of consensus PDE4D sequence (Q08499 whole entry): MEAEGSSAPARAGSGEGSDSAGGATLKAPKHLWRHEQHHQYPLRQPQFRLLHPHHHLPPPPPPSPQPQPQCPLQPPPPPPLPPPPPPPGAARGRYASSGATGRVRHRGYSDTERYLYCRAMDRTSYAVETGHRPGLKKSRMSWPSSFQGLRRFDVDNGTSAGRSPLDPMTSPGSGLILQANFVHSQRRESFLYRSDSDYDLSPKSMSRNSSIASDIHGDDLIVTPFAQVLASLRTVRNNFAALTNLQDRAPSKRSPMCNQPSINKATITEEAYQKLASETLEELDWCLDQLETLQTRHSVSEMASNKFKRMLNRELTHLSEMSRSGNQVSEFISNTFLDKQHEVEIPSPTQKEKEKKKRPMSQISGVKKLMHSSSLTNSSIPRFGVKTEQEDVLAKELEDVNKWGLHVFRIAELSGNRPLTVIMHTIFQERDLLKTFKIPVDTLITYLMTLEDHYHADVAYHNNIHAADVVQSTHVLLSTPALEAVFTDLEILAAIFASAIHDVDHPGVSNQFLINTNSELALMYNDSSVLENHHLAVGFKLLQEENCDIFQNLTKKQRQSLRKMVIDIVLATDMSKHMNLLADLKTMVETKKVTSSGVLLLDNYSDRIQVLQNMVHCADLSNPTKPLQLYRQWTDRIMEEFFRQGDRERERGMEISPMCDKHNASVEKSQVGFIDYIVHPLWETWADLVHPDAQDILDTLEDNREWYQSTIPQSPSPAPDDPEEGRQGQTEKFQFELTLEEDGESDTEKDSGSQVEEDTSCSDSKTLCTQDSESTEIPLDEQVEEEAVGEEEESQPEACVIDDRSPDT
Text: First, the contribution of PDE4 was revisited as a potential explanation for the observed mechanistic drift.

[4] = Lipophilic efficiency (LipE = pEC50 − cLogP) and cLogP
Outline: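 pEC50 came from TM3-Gli-Luc Gli-responsive luciferase reporter cells stimulated with 20 nM SAG, with non-specific cytotoxicity monitored in parallel. LipE was calculated by subtracting cLogP from pEC50.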

[5] = biological target: T1, Smo cyclopamine (Cyc) binding site (Homo sapiens, UniProt Q99835); assay: BODIPY-cyclopamine competition in HEK-293T cells overexpressing Smo; details: KAAD-Cyc 200 nM; analogs at 10- to 20-fold their EC50s
T1 construct: expressed in transfected cells; host or cells: HEK-293T
T1 sequence (Q99835 28-787): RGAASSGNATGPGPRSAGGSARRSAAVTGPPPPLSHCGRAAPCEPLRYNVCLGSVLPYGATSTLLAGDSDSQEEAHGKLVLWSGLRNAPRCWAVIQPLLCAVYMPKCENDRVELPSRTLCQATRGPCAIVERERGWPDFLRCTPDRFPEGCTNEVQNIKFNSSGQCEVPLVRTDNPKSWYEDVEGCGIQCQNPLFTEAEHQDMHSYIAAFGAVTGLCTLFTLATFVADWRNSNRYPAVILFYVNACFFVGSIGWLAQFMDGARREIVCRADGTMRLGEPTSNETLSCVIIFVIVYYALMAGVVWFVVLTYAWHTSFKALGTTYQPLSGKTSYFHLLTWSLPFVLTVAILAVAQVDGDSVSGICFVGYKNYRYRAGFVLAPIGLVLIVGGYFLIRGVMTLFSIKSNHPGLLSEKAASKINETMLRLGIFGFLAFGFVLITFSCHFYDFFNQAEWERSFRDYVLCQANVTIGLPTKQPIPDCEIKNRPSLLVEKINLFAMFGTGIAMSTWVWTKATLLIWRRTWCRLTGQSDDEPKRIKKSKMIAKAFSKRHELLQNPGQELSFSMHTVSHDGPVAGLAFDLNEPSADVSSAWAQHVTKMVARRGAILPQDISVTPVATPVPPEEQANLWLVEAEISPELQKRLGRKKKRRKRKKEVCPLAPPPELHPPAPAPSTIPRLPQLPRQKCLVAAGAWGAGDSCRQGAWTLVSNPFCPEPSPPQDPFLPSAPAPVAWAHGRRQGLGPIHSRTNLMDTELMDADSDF
Protocol: Thus, HEK-293T cells overexpressing Smo were concurrently treated with 5 nM BODIPY-Cyc and molecules of interest.

[6] = biological target: PDE4D (Homo sapiens, UniProt Q08499); assay: PDE4 inhibition assay (PDE4D IC50); assay type: biochemical; details: mean ± SEM, normalized to DMSO; read-out: PDE4D IC50
Chain of PDE4D (Q08499 whole entry): as the sequence (Q08499 whole entry) above
Outline: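 Duplicate 60 min room-temperature reactions hold 100 nM FAM-cAMP substrate, PDE4D enzyme and test compound at 1% final DMSO in pH7.4 Tris buffer. Product FAM-AMP captured by bead binding agent (60 min), with fluorescence read at excitation 485, emission 528 nm.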

[7] = test system: TM3-Gli-Luc cells; assay: TM3-Gli-Luc cell viability (Cell Titer Glo, LD50); assay type: cell-based
Protocol: On the day of cell plating, 96-well plates were coated with 50 μL/well of sterile 0.1% gelatin for 5 minutes then aspirated and replaced with 50 μL/well of TM3 Culture Medium. TM3-Gli-Luc cells were seeded at a density of 5,000 cells/well in TM3 Culture Medium and incubated for 24 hours. A master mix of 20 nM SAG in TM3Luc Medium was prepared, and small molecule solutions were prepared by adding the desired amount of compound from 10 mM DMSO stock to TM3Luc Medium containing 20 nM SAG. Negative control was prepared by adding an equi-volume amount of DMSO as compared to small molecule treated conditions to TM3Luc Medium not containing SAG. Cell plating medium was aspirated and replaced with 100 μL/well of prepared small molecule-containing media, and plates were incubated for 48 hours before proceeding to luciferase activity and cell viability reading.
TM3Luc Medium from compound treated plates was aspirated and replaced with 82 μL/well of Glo Lysis Buffer (Promega, Madison, Wis., USA), and plates were shaken at 300 rpm and room temperature for 12 minutes. Lysate was split between two white 96-well plates, 45 μL/well and 25 μL/well for luciferase reading and cell viability respectively. For luciferase activity monitoring, 45 μL/well of Steady Glo (Promega, Madison, Wis., USA) was added to 45 μL/well of cell lysate, incubated at room temperature for 5 minutes, then luminescence was measured on a Turner Biosystems Modulus Microplate Reader (Sunnyvale, Calif., USA) with an integration time of 0.5 seconds. For cell viability measurement, 25 μL/well of Cell Titer Glo (Promega, Madison, Wis., USA) (prepared by 1:10 dilution with Glo Lysis Buffer) was added to 25 μL/well of cell lysate, incubated at room temperature for 5 minutes, then luminescence was measured as above.
All raw data was divided by the average of positive control cell titer data to arrive at percent cells remaining compared to positive control. […] At least two independent assays tested on separate days were averaged to provide LD50±standard error of the mean.

[8] = test system: Hedgehog signaling (TM3-Gli-Luc); assay: TM3-Gli-Luc luciferase reporter assay stimulated with 20 nM SAG; assay type: cell-based
Outline: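 Luciferase read-out divided by CellTiter-Glo viability, minus DMSO/no-SAG baseline, expressed relative to 20 nM SAG alone. Cells exposed to compound with SAG for 48 h at 37 °C in 2.5% FBS DMEM/F12 on gelatin. EC50 ±SEM from at least two separate-day runs.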

[9] = TM3-Gli-Luc reporter line stimulated with 20 nM SAG, mean ± SEM, Table 14, read-out: TM3-Gli-Luc EC50
[10] = calculated as pEC50 - cLogP (Molinspiration Cheminformatics), Table 13
[11] = TM3-Gli-Luc reporter line stimulated with 20 nM SAG, mean ± SEM, Table 13, read-out: TM3-Gli-Luc EC50

Row | SMILES | Transcriptional inhibition in the Sufu−/− cell line, in words [2] | PDE4D inhibition in words [3] | LipE ([4]; pEC50 - cLogP, Table 14) | Displacement of BODIPY-cyclopamine (5 nM) from Smo [5] | EC50 [8, 9] | LipE [4, 10] | EC50 [8, 11] | also measured
1 | N#CC(=C(O)c1ccc(Cl)cc1Cl)c1nc2cc(Cl)ccc2c(=O)[nH]1 [Ciliobrevin D, reference compound] |  |  |  |  |  |  |  | IFT88 localization in the cilium [1]: perturbed the localization of IFT88 in the cilium; IFT88 localization in the cilium ([1]; listed as ciliobrevin D): severely disrupted the IFT88 localization in the cilium
2 | O=c1c2ccsc2nc(SCC(O)c2ccccc2)n1C1CC1 (stereo not shown) [Formula 20a] | lack of Sufu−/− transcriptional inhibition | only modest ICs against PDE4D | 3.41 | do not displace the binding of BODIPY-cyclopamine; also recorded: failed to compete for the Smo binding site |  |  |  | IC50 [6]: 6070 ± 1500 nM
3 | C=C(C)Cn1c(SCC(=O)N2CCCCC2C)nc2sc3c(c2c1=O)CCCC3 (stereo not shown) [Formula 9m] | general ability to inhibit transcriptional activity |  | 0.94 |  | 2320 ± 730 nM |  |  | LipE ([4]; Calculated as pEC50 - cLogP, Molinspiration Cheminformatics): 0.94; LD50 [7]: 16.7 µM; TM3-Gli-Luc LD50 ([7]; mean ± standard error of the mean): 16.7 ± 0.25 µM; reduction in potency versus EGM1 [8]: ~2 fold; EC50 ([8]; 20 nM SAG, mean ± standard error of the mean, read-out: TM3-Gli-Luc EC50): 2320 ± 730 nM
4 | O=C(CSc1nc2ccccc2c(=O)n1C1CC1)c1cccs1 [Formula 14b] | lack of Sufu−/− transcriptional inhibition |  | 2.78 | do not displace the binding of BODIPY-cyclopamine; also recorded: failed to compete for the Smo binding site | 685 ± 20 nM | 2.78 | 685 ± 20 nM | Hh inhibitory activity / potency in words ([8]; 20 nM SAG): potency improvements over EGM1; EC50 ([8]; 20 nM SAG, read-out: EC50): 685 nM
5 | O=C(CSc1nc2sccc2c(=O)n1C1CC1)c1ccccc1 [Formula 19c] | lack of Sufu−/− transcriptional inhibition | only modest ICs against PDE4D | 3.84 | do not displace the binding of BODIPY-cyclopamine; also recorded: failed to compete for the Smo binding site | 82 ± 10 nM | 3.84 | 82 ± 10 nM | Non-specific cellular toxicity [7]: no non-specific cellular toxicity

— patent US10329304B2, “Compounds and methods for inhibition of hedgehog signaling and phosphodiesterase” (Vanderbilt University, priority 2014, dated 2019)
